Among the data in ChEMBL document CHEMBL1132946 (J Med Chem, 2000) are Ki and Selectivity values, retold here.

Broadly, the Ki is the dissociation constant of the complex between target and ligand, obtained from inhibition or displacement. A low value points to a stronger hold on the target.

The target of one assay is T1, Adenosine receptor A3 (Rattus norvegicus, UniProt P28647).
T1 sequence (P28647 whole entry): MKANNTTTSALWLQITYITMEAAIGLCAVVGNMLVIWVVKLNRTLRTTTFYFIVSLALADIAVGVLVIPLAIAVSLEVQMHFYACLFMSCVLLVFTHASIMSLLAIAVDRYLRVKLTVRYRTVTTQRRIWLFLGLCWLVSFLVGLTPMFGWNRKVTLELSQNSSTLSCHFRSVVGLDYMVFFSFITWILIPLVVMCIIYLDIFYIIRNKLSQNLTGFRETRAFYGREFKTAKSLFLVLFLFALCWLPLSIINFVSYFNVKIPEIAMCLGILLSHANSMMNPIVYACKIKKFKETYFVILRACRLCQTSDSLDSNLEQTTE
The experiment in a line: Ability to displace the specific binding of [3H](R)-PIA to adenosine A3 receptor from rat testis membranes. The assay is classed as cell membranes, Membrane.

Assay [1] addresses T2, Adenosine receptor A1 (Bos taurus, UniProt P28190).
T2 sequence (P28190 whole entry): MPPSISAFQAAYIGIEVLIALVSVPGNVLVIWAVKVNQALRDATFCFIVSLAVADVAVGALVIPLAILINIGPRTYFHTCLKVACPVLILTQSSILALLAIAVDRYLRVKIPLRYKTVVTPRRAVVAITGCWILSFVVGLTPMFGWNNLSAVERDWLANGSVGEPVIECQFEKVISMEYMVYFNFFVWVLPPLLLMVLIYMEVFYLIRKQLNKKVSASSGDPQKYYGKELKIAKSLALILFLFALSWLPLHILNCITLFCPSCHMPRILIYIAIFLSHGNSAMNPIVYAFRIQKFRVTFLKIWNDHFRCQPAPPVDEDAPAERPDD
In words: biochemical.

A short description of assay [2]: Selectivity, ratio of affinity towards adenosine A3 to A1.
The species named for assay [3] is Bos taurus. In words: Selectivity, ratio of affinity towards adenosine A2A to A1.
The target of assay [4] is Adenosine receptor A2a (Bos taurus). In words: biochemical.
For assay [5], the species on record is Bos taurus. In words: Selectivity, ratio of affinity towards adenosine A3 to A2A.
The target in assay [6] is T2, Adenosine receptor A1. In words: Displacement of [3H]CHA from A1 Adenosine receptor of Bovine brain cortical membranes. A general note: Displacement assays read how much labelled ligand stays bound in the presence of the test substance.

In the case of `CCOC(=O)N1CCN(c2cc(-c3ccccc3)nc3nc(C)ccc23)CC1`, the Ki is more than 10000 nM at Adenosine receptor A3 and 1200 nM on Adenosine receptor A1 [1].

`Oc1cc(-c2ccccc2)nc2ncccc12`: the results for the Ki at Adenosine receptor A3 and at Adenosine receptor A1 [1] were 3000 nM and 16 nM, respectively.

As to `Oc1cc(-c2ccccc2)nc2nc(Cl)ccc12`, the Ki at Adenosine receptor A3 came out at 2100 nM; on Adenosine receptor A1 [1], 0.15 nM.

`O=c1ccc2c(O)cc(-c3ccccc3)nc2[nH]1`: the inhibition constant Ki at Adenosine receptor A3 and on Adenosine receptor A1 [1] was more than 10000 nM in each case.

With `COc1ccc2c(O)cc(-c3ccccc3)nc2n1`, the Ki is more than 10000 nM on Adenosine receptor A3 and 1.6 nM on Adenosine receptor A1 [1].

On to `Cn1c(=O)ccc2c(O)cc(-c3ccccc3)nc21`, for which the Ki on Adenosine receptor A3 was more than 10000 nM; at Adenosine receptor A1 [1] it was 4900 nM.

In the case of `CCn1c(-c2ccccc2)cc(=O)c2ccc(C)nc21`, the inhibitory constant (Ki) at Adenosine receptor A3 was more than 10000 nM; at Adenosine receptor A1 [1] it was 450 nM.

Take `Oc1cc(-c2ccccc2)nc2nc(F)ccc12`: the Ki at Adenosine receptor A3 was more than 10000 nM; at Adenosine receptor A1 [1], 4.1 nM; in assay [4], 170 nM. Further, the Selectivity in assay [2] was more than 2440; in the assay listed under Bos taurus [3], 41; in the assay listed under Bos taurus [5], more than 59.

For `Cc1ccc2ccc(-c3ccccc3)nc2n1`, the Ki is more than 10000 nM at Adenosine receptor A3 and 6900 nM at Adenosine receptor A1 [1].

Consider `OC[C@H]1O[C@@H](n2cnc3c(NC4CCCCC4)ncnc32)[C@H](O)[C@@H]1O`, for which the Ki on Adenosine receptor A3 stood at 25 nM; at Adenosine receptor A1 [1], 1.3 nM.

In the case of `Nc1ccc2c(O)cc(-c3ccccc3)nc2n1`, the Ki at Adenosine receptor A3 is more than 10000 nM; on Adenosine receptor A1 [1], 5.3 nM.

As for `Cc1ccc2c(O)cc(-c3ccc([N+](=O)[O-])cc3)nc2n1`, the Ki was more than 10000 nM at Adenosine receptor A3 and 9.9 nM on Adenosine receptor A1 [1].

In the case of `Cc1ccc2c(N3CCNCC3)cc(-c3ccccc3)nc2n1`, the figures for the Ki on Adenosine receptor A3 and on Adenosine receptor A1 [1] were more than 10000 nM and 8700 nM, respectively.

As for `Cc1ccc2c(S)cc(-c3ccccc3)nc2n1`, the figures for the Ki on Adenosine receptor A3 and at Adenosine receptor A1 [1] were more than 10000 nM and 80 nM, respectively.

With `Oc1cc(-c2ccccc2)nc2nc(Br)ccc12`, the Ki at Adenosine receptor A3 turned out to be 2100 nM; on Adenosine receptor A1 [1], 0.7 nM.

In the case of `Cc1ccc2c(N(C)C)cc(-c3ccccc3)nc2n1`, the Ki was more than 10000 nM at Adenosine receptor A3 and 550 nM on Adenosine receptor A1 [1].

On to `Cc1ccc2c(O)cc(-c3ccccc3)nc2n1`, for which the Ki on Adenosine receptor A3 came out at 8800 nM; on Adenosine receptor A1 [1], 5.3 nM; in assay [4], 460 nM. In addition, the Selectivity in assay [2] came to 1660; in the assay filed under Bos taurus [3] it was 87; in the assay listed under Bos taurus [5], 19.

In the case of `Cc1ccc2c(Cl)cc(-c3ccccc3)nc2n1`, the figures for the Ki (on Adenosine receptor A3; in assay [4]; at Adenosine receptor A1 [6]) were more than 10000 nM, more than 10000 nM and 1000 nM, respectively. Besides, the Selectivity (in assay [2]; in the assay listed under Bos taurus [3]) was more than 10 throughout.

Turning to `COc1cc(-c2ccccc2)nc2nc(C)ccc12`, the Ki on Adenosine receptor A3 was more than 10000 nM; at Adenosine receptor A1 [1] it was 6000 nM.

Consider `Cc1ccc2c(O)cc(-c3ccccc3F)nc2n1`, for which the values for the Ki (at Adenosine receptor A3; at Adenosine receptor A1 [1]; in assay [4]) were 4600 nM, 11 nM and 470 nM, respectively. For the same molecule, the Selectivity is 418 in assay [2], 43 in the assay filed under Bos taurus [3] and 10 in the assay filed under Bos taurus [5].

Turning to `COc1cc(-c2ccccc2)nc2c1ccc(=O)n2C`, the Ki is more than 10000 nM at Adenosine receptor A3 and 1300 nM at Adenosine receptor A1 [1].

For the molecule `CCCn1c(=O)c2[nH]c(-c3ccc(OCC(=O)NCCN)cc3)nc2n(CCC)c1=O` [XANTHINE AMINE CONGENER], the results for the Ki on Adenosine receptor A3 and on Adenosine receptor A1 [1] were 418 nM and 1.3 nM, respectively.

In the case of `Cc1ccc2c(Oc3ccccc3)cc(-c3ccccc3)nc2n1`, the Ki on Adenosine receptor A3 was more than 10000 nM.

Regarding `Cc1ccc2c(O)cc(-c3ccc(F)cc3)nc2n1`, the Ki at Adenosine receptor A3 came to 6100 nM; at Adenosine receptor A1 [1] it was 5.3 nM.

For `Cc1ccc2c(N=[N+]=[N-])cc(-c3ccccc3)nc2n1`, the inhibitory constant (Ki) (at Adenosine receptor A3; at Adenosine receptor A1 [1]; in assay [4]) was more than 10000 nM each time.

With `Cc1ccc2c(N)cc(-c3ccccc3)nc2n1`, the figures for the Ki on Adenosine receptor A3 and at Adenosine receptor A1 [1] were more than 10000 nM and 17 nM, respectively.

Turning to `Oc1cc(-c2ccccc2)nc2nc(Oc3ccccc3)ccc12`, the figures for the Ki on Adenosine receptor A3 and on Adenosine receptor A1 [1] were more than 10000 nM and 26 nM, respectively.

In the case of `Cc1ccc2c(NC3CCCCC3)cc(-c3ccccc3)nc2n1`, the results for the Ki on Adenosine receptor A3 and on Adenosine receptor A1 [1] were more than 10000 nM and 28 nM, respectively.

As to `CCOc1ccc2c(O)cc(-c3ccccc3)nc2n1`, the Ki on Adenosine receptor A3 was more than 10000 nM; at Adenosine receptor A1 [1], 5.2 nM; in assay [4] it was more than 10000 nM. In addition, the Selectivity (in assay [2]; in the assay listed under Bos taurus [3]) was more than 1920 throughout.

As to `Cc1ccc2c(NN)cc(-c3ccccc3)nc2n1`, the inhibitory constant (Ki) on Adenosine receptor A3 was more than 10000 nM; at Adenosine receptor A1 [1], 100 nM.
